Data as given in PMC5578373, “Inhibitory Kappa B Kinase α (IKKα) Inhibitors That Recapitulate Their Selectivity in Cells against Isoform-Related Biomarkers” (Journal of Medicinal Chemistry, 2017).
Like-named read-outs stand apart in the source and are kept apart here.

Assays:
IKKα = biological target: T1, IKKα (Homo sapiens, UniProt O15111); assay: DELFIA kinase assay, IKKα; type: biochemical; conditions: for Ki: apparent Ki (Cheng–Prusoff), 40 μM ATP, three independent experiments, read-out: IKKα (Ki ± SEM μM); for IKKα inhibitory activity: SAR discussion
T1 construct: purchased Millipore, Dundee, UK
T1 sequence (O15111 1-745): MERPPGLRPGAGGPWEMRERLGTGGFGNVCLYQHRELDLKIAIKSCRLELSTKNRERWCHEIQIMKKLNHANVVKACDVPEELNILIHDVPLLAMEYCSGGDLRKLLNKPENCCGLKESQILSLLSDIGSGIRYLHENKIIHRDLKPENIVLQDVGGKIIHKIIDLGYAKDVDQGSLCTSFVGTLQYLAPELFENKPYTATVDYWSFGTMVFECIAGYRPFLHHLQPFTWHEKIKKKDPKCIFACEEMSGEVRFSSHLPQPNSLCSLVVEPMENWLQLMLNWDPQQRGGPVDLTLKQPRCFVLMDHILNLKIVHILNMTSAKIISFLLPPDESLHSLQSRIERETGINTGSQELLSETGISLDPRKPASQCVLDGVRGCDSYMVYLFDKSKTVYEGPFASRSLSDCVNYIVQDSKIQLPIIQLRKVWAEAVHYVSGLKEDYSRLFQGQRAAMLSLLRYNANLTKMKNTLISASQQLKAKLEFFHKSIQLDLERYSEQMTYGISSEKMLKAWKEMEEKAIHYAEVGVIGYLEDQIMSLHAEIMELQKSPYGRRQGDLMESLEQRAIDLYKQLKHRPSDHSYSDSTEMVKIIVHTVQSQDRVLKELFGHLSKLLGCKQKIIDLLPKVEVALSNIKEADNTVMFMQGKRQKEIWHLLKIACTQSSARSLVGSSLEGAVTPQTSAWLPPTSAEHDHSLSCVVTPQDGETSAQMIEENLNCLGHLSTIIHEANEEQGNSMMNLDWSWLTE

IKKβ = biological target: T2, IKKβ (Homo sapiens, UniProt O14920); assay: DELFIA kinase assay, IKKβ; type: biochemical
T2 construct: purchased Millipore, Dundee, UK
T2 sequence (O14920 1-756): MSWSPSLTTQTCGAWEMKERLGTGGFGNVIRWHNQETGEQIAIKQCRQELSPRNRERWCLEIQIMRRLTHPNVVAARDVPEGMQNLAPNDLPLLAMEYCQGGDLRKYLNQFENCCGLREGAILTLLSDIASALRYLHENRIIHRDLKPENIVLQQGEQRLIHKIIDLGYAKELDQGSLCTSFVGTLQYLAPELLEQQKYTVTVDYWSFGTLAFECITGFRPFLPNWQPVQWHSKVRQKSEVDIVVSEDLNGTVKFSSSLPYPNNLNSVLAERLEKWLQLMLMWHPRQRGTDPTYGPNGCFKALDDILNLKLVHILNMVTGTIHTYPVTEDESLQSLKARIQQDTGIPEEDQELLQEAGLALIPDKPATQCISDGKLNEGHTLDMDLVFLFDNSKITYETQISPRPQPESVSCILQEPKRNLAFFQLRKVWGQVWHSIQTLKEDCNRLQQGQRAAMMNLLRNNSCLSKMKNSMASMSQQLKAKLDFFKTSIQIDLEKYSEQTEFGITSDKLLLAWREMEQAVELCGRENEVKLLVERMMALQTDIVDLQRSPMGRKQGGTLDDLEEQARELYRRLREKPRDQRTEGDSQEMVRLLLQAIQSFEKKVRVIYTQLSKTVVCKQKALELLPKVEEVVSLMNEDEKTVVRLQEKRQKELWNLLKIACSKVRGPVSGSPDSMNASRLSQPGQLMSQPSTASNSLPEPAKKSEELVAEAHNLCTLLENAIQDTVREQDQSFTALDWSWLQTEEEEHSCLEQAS
Source text: To identify hits that could be developed to exploit the differences between the two isoforms, we screened our in-house compound library compiled of fragments designed to target the common hinge-binding motif found in protein kinases. Using a DELFIA kinase assay kit with minor modifications[29] to measure IKKα and IKKβ inhibitory activity, we identified 2-amino-4-chloro-5-cyanopyrrolo[2,3-d]pyrimidine 4 as our primary hit (Table 1). On the basis of the assumption that the 2-aminopyrrolo[2,3-d]pyrimidine core of compound 4 was binding at the hinge of IKKα, we varied substitution at the 4-position widely. Differences in bulk and polar functionality were incorporated to exploit the greater flexibility in the IKKα ATP binding site and the position of the Asn28 side chain at the back of the pocket.
IKKα and IKKβ inhibitory activity was determined using a dissociation enhanced ligand fluorescent immunoassay (DELFIA) based on the protocol of HTScan IKKβ kinase assay (Cell Signaling Technology, USA).
Recombinant IKKα or IKKβ, 37 nM (Millipore, Dundee, UK), was incubated with IκB-α (Ser32) (New England Biolabs, Hitchin, UK), biotinylated peptide substrate (0.375 μM), and 40 μM ATP in assay buffer (40 mM Tris-HCl (pH 7.5), 20 mM MgCl2, EDTA 1 mM, DTT 2 mM, and BSA 0.01 mg/mL) in a V-well 96-well plate in the presence and absence of test compound. The assay plate was incubated for 60 min at 30 °C, after which the kinase reaction was quenched by the addition of 50 mM EDTA, pH 8. The resulting mixture was transferred to a streptavidin-coated 96-well plate (PerkinElmer, Beaconsfield, UK) and incubated for 1 h at 30 °C to immobilize the substrate peptide. After three washes with wash buffer (0.01 M phosphate buffered saline (PBS), 0.05% Tween-20, pH 7.4), a primary antibody against the phosphorylated substrate (phospho-IκB-α) (Ser32/36) (5A5) mouse mAb (New England Biolabs, Hitchin, UK) (1:1000 dilution with 1% bovine serum albumin (BSA) in wash buffer) was added and incubated at 37 °C for 2 h.
After a further three washes, a secondary europiated antibody (Eu–N1 labeled antimouse IgG, (PerkinElmer, Beaconsfield, UK) diluted 1:500 in 1% BSA/wash buffer) was added and incubated at 30 °C for 30 min. After a further five washes, DELFIA enhancement solution (PerkinElmer, Beaconsfield UK) was added and allowed to incubate for 10 min at room temperature, protected from light, to facilitate the chemifluorescent detection. The relative fluorescence units (RFU) signal were measured on a Wallac Victor 1420 multilabel counter (PerkinElmer, Beaconsfield, UK) in time-resolved fluorescence mode. The counter was set at an excitation wavelength of 340 nm with a 400 μs delay before detecting emitted light at 615 nm. The apparent Ki of the phosphorylated substrate was calculated for each compound using the Cheng–Prusoff equation.

[1] = apparent Ki (Cheng–Prusoff), 40 μM ATP, three independent experiments, read-out: IKKβ (Ki ± SEM μM)

IKKα inhibitory activity (IKKα)	Molecule	other results
–	2-Amino-4-(3-hydroxypropylamino)-7H-pyrrolo[2,3-d]pyrimidine-5-carbonitrile [Compound 23]	Ki (IKKα): 12.1 ± 6.3 µM; Ki (IKKβ; [1]): > 30 µM
active and selective against IKKα	N#Cc1c[nH]c2nc(N)nc(N3CCC(O)C3)c12 (stereo in doubt) [Compound 25, (R)-2-Amino-4-(3-hydroxypyrrolidin-1-yl)-7H-pyrrolo[2,3-d]pyrimidine-5-carbonitrile]	–
attenuated all IKKα inhibitory activity	Nc1nc(NC2CCCCC2)c2c(C(F)(F)F)c[nH]c2n1 [Compound 70, N^4-Cyclohexyl-5-(trifluoromethyl)-7H-pyrrolo[2,3-d]pyrimidine-2,4-diamine]	–
–	2-Amino-4-(cyclohexylmethylamino)-7H-pyrrolo[2,3-d]pyrimidine-5-carbonitrile [Compound 10]	Ki (IKKα): > 30 µM; Ki (IKKβ; [1]): > 30 µM
active	N#Cc1c[nH]c2nc(N)nc(N3CCC(S(N)(=O)=O)CC3)c12 [Compound 18, 1-(2-Amino-5-cyano-7H-pyrrolo[2,3-d]pyrimidin-4-yl)piperidine-4-sulfonamide]	–
inactive	N#Cc1c[nH]c2nc(N)nc(-c3cccc(C(N)=O)c3)c12 [Compound 55, 3-(2-Amino-5-cyano-7H-pyrrolo[2,3-d]pyrimdin-4-yl)benzamide]	IKKβ inhibitory activity (IKKβ; SAR discussion): inactive
inactive	N#Cc1c[nH]c2nc(N)nc(N(CCO)C3CCCCC3)c12 [Compound 29, 2-Amino-4-(cyclohexyl(2-hydroxyethyl)amino)-7H-pyrrolo[2,3-d]pyrimidine-5-carbonitrile]	–
inactive	Nc1nc(Cl)c2cc[nH]c2n1 [Compound 63]	–
active	N#Cc1c[nH]c2nc(N)nc(N3CCCCC3)c12 [Compound 17, 2-Amino-4-(piperidin-1-yl)-7H-pyrrolo[2,3-d]pyrimidine-5-carbonitrile]	–
attenuated all IKKα inhibitory activity	NC(=O)c1c[nH]c2nc(N)nc(N[C@H]3CC[C@H](O)CC3)c12 [Compound 71, 2-Amino-4-((1R,4R)-4-hydroxycyclohexylamino)-7H-pyrrolo[2,3-d]pyrimidine-5-carboxamide]	–
active and selective against IKKα	N#Cc1c[nH]c2nc(N)nc(N[C@H]3CC[C@H](O)CC3)c12 [Compound 28, 2-Amino-4-((1R,4R)-4-hydroxycyclohexylamino)-7H-pyrrolo[2,3-d]pyrimidine-5-carbonitrile]	–
–	Nc1nc(-c2ccc(S(N)(=O)=O)cc2)c2cc[nH]c2n1 [Compound 64, 4-(2-Amino-7H-pyrrol[2,3-d]pyrimidin-4-yl)benzenesulfonamide]	reduction of activity against IKKα (IKKα; relative to 48 (absence of 5-cyano group)): more than 30 fold
–	4-((2-Amino-5-cyano-7H-pyrrolo[2,3-d]pyrimidin-4-yl)amino)benzoic acid [Compound 12]	Ki (IKKα): > 30 µM; Ki (IKKβ; [1]): > 30 µM
inactive	N#Cc1c[nH]c2nc(N)nc(N3CC[C@@H](O)C3)c12 [Compound 24, (R)-2-Amino-4-(3-hydroxypyrrolidin-1-yl)-7H-pyrrolo[2,3-d]pyrimidine-5-carbonitrile]	–
active and selective	N#Cc1c[nH]c2nc(N)nc(N[C@@H]3CC[C@@H](O)[C@H]3O)c12 (relative stereo) [Compound 30, 2-Amino-4-((1RS,2SR,3RS)-2,3-dihydroxycyclopentylamino)-7H-pyrrolo[2,3-d]pyrimidine-5-carbonitrile]	–
–	N#Cc1c[nH]c2nc(N)nc(NC3CCCCC3)c12 [Compound 9, 2-Amino-4-(cyclohexylamino)-7H-pyrrolo[2,3-d]pyrimidine-5-carbonitrile]	increase in potency against IKKα (IKKα; from methylamine analogue 7 to cyclohexylamine derivative 9): 5 fold
–	N#Cc1c[nH]c2nc(N)nc(NCc3ccccc3)c12 [Compound 14, 2-Amino-4-(benzylamino)-7H-pyrrolo[2,3-d]pyrimidine-5-carbonitrile]	Ki (IKKβ; supplementary CSV, read-out: IKKbeta Ki (?M)): 19 µM
